Read-outs that look alike come from different tables or passages of the source.
Molecular target: T1, recombinant human KHKC (Homo sapiens, UniProt P50053)
T1 construct: Profinity eXact fusion tag (N, cleaved yes); made in house; host or cells: E. coli BL21 (DE3), vector pPAL8; cDNA from Hep G2 cells
T1 sequence (P50053 1-298): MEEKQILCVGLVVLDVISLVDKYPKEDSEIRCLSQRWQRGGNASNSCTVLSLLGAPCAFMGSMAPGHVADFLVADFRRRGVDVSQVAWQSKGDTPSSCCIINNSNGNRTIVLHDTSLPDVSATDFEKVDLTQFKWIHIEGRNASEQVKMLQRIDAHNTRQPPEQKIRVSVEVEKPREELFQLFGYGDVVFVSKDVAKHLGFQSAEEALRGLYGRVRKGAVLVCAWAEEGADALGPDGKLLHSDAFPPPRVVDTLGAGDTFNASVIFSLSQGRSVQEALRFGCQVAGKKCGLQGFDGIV
Assay: High throughput cell-free recombinant KHKC enzymatic assay (3-step reaction, decrease in NADH at A340nm)
Type: biochemical
Settings: for inhibition at 50 µM: read-out: KHKC Inhibition (%)
Procedure: Botanical extracts and phytochemicals were screened for their inhibitory activity using a high throughput cell-free enzymatic assay that utilized recombinant KHKC. KHKC activity was assayed with a 3-step reaction (Fig 2). The Synergy 2 multi-mode microplate reader was used to measure the decrease in NADH at A340nm (BioTek Instruments, Inc., Winooski, VT). For screening of the botanical extracts and phytochemicals, the KHKC enzymatic assay was carried out at 37°C in a total reaction volume of 200 ul containing 50 mM PIPES, 6 mM MgCl2, 100 mM KCl, 5 mM ATP, 2 mM phosphoenolpyruvate, 0.3 mM NADH, 15 U of pyruvate kinase, 15 U of lactate dehydrogenase, and 75 ng KHKC. The botanical extracts (50 μg/mL) and phytochemicals (50 μM) were preincubated in the reaction mixture for 15 min at 37°C. Afterwards, 1 mM fructose was added to the reactions, except for the no fructose controls, and A340nm data were collected every minute for 1 hr. The changes in absorbance were calculated for all samples based on the linear phase of the reactions and adjusted for the no fructose controls. Compared to the fructose only controls (1 mM fructose, no inhibitors), percentage inhibition of KHKC for each sample was calculated. […] For phytochemicals that inhibited KHKC by at least 40%, dose responses were conducted from 0.05 to 100 μM. IC50s against KHKC were calculated. 4-(hydroxymercuri) benzoic acid sodium salt was used as a positive inhibitory control of KHKC [36]. All chemicals were purchased from Sigma-Aldrich (St. Louis, MO).
Recombinant human KHKC proteins: Recombinant human KHKC was produced using the Profinity eXact fusion-tag system (Bio-Rad Laboratories, Hercules, CA). RNA were isolated from Hep G2 cells. CDNA was generated using 1 μg of RNA (iScript cDNA synthesis kit, Bio-Rad Laboratories). The coding sequences of KHKC were amplified using iProof high-fidelity DNA polymerase (Bio-Rad Laboratories). The following primers were used: forward primer = 5’…[…]…3’ and reverse primer = 5’…[…]…3’. The amplicons were ligated into pPAL8, a bacterial expression vector. Sequencing, performed by Beckman Coulter Genomics (Danvers, MA), confirmed that the coding sequences of the KHKC clones were a match to the National Center for Biotechnology Information’s reference sequence. The clones were transformed into BL21 (DE3) chemi-competent expression cells (Bio-Rad Laboratories). E. coli cultures were grown at 37°C in terrific broth media containing 100 μg/mL ampicillin. When the cell density (OD600) reached 0.5–0.7, the expression of KHKC was induced by adding 1 mM isopropyl β-D-1-thiogalactopyranoside. After 3–4 hr incubation, the growth culture was centrifuged at 5,000 g for 10 min at 4°C and the pellet was stored at -80°C.
For protein purification, the bacterial cell pellet was lysed using B-PER in phosphate buffer (Thermo Fisher Scientific Inc., Rockford, IL) containing AEBSF protease inhibitor (EMD Chemicals, Gibbstown, NJ). The lysate was centrifuged at 30,000 x g for 30 min at 4°C to remove cell debris. The supernatant was filtered using a […] syringe filter and then loaded (2.5 mL/min) onto the Bio-Scale Mini Profinity eXact cartridges using the Profinia protein purification instrument (Bio-Rad Laboratories). The column was first washed with 100 mL sodium phosphate, pH 7.0 (10 ml/min, CV = 10) followed by 400 mL sodium phosphate, pH 7.0 (10 ml/min, CV = 15). The protein was eluted with 100 mM sodium phosphate and 100 mM sodium fluoride, pH 7.2 and incubated for 4 hr at 4°C. The tag-less protein was stored in 20% glycerol and frozen at -80°C until use.
GraphPad Prism 5.03 (GraphPad Software, La Jolla, CA) was utilized for the data and statistical analyses. To generate a best fit, an upper concentration (10,000 μg/mL at 100% inhibition) and a lower concentration (0.001 μg/mL at 0% inhibition) were added in order to calculate the IC50s for the inhibition of KHKC and for the inhibition of fructose-induced ATP depletion. […]

[1] = phytochemical library screen, 50 μM, 1 mM fructose
[2] = phytochemicals, dose response 0.05 to 100 μM, read-out: KHKC IC50

Row | Compound | KHKC Inhibition (%) [1] | IC50 [2] | inhibition at 50 µM [1] | IC50 | inhibition at 50 µM
1 | 3,4',5,7-THMethoxy3'-O-B-D-Xylopyranoside | 63.3% | 3.5 µM |  |  | 
2 | COc1cc(OC)c2ccc(=O)oc2c1CC=C(C)C [5,7-Dimethoxy-8-prenylcoumarin] |  | 10.3 µM | 70.4% |  | 
3 | O=C(O)[C@H]1O[C@@H](Oc2cc(O)c3c(=O)cc(-c4ccc(O)cc4)oc3c2)[C@H](O)[C@@H](O)[C@@H]1O [Apigenin 7-glucuronide] | 53.1% | 16.1 µM |  |  | 
4 | O=c1cc(-c2ccc(O)cc2)oc2cc(O[C@@H]3O[C@H](CO)[C@@H](O)[C@H](O)[C@H]3O[C@@H]3OC[C@](O)(CO)[C@H]3O)cc(O)c12 [Apiin] |  | 21.5 µM | 47% |  | 
5 | COc1c(O)cc2c(=O)c3c(O)cc(O)c(CC=C(C)C)c3oc2c1CC=C(C)C [Cratoxyarborenone E] |  | 1 µM | 61.7% |  | 
6 | CC(C)=CCc1c(O)ccc(C(=O)/C=C/c2ccc(O)cc2)c1O [Isobavachalcone] |  | 5.7 µM | 44.2% |  | 
7 | CC(C)=CCc1c(-c2ccc(O)cc2O)oc2c(CC=C(C)C)c(O)cc(O)c2c1=O [Mulberrin] | 61.2% | 31.2 µM |  |  | 
8 | COc1c(O)cc2oc(-c3ccccc3)cc(=O)c2c1O [Oroxylin A] |  | 8.2 µM | 42.1% |  | 
9 | CC(C)=CCc1c(O)ccc2ccc(=O)oc12 [Osthenol] |  |  |  | 7.8 µM | 74.1%
10 | COc1ccc2ccc(=O)oc2c1CC=C(C)C [Osthole] |  | 0.7 µM | 93.4% |  | 
11 | Flavaspidic acid AB | 48.7% | 29.5 µM |  |  | 
12 | Methoxy isobavachalcone | 70.8% | 0.2 µM |  |  | 
13 | Swietenocoumarin B | 62.5% | 58.4 µM |  |  | 
14 | α-/γ-Mangostin | 90.4% | 1.5 µM |  |  | 

From PMC4913896, “Bioactivity-Guided Identification of Botanical Inhibitors of Ketohexokinase” (PLoS ONE, 2016)
